Experiment [1] concerns LPS-activated RAW 264.7 macrophages. The experiment in a line: iNOS and COX-2 expression by Western blot. The format is cell-based, murine. The settings on record: 30 min pretreatment, LPS 24 h. As to the method:
Cells were washed twice with ice-cold phosphate-buffered saline (PBS) and lysed on ice for 5 min with lysis buffer (20 mM Tris-HCl, pH 7.5, 150 mM NaCl, 1 mM Na 2EDTA, 1 mM EGTA, 1% Triton X-100, 2.5 mM sodium pyrophosphate, 1 mM beta-glycerophosphate, 1 mM Na 3VO4, 1 µg/ml of leupeptin, 1 mM PMSF, protease inhibitor cocktail). The lysate was then centrifuged at 12,000 x g at 4 °C for 10 min and the pellet discarded. Proteins in the supernatant were separated by SDS-PAGE and electrotransferred to a PVDF membrane (EMD Millipore Corporation), which was then blocked by incubation for 1 h at room temperature in blocking buffer [(5% nonfat milk in PBS containing 0.1% Tween 20 (PBST)], then incubated for 2 h at room temperature with the primary antibody diluted in blocking buffer. After three washes in PBST, the membrane was incubated for 1 h at room temperature with an appropriate HRP-conjugated secondary antibody diluted in blocking buffer and developed using an enhanced chemiluminescence Western blot detection system (EMD Millipore Corporation).
(§1) To investigate the inhibitory effect of compounds 1h, 1i, and 1n on the LPS-induced inflammatory response, NO levels in the supernatants of RAW 264.7 macrophages incubated with DMSO (vehicle) or compound 1h, 1i, or 1n for 30 min before, and during, incubation for 24 h with LPS (1 µg/ml) were measured by the Griess reaction. […] We next investigated their effect on the expression of iNOS, the NO producing enzyme, using Western blots.
(§2) Figure 2 Effect of polyenylpyrrole derivatives on the expression of inflammatory mediators in LPS-stimulated RAW 264.7 macrophages. In (A) and (C), the cells (5 × 10^5/ml; 1 ml) were incubated for 30 min with 2.5-40 µM compound 1h, 1i, or 1n or DMSO (vehicle), then LPS (1 µg/ml) was added and incubation continued for 24 h, then NO (A) or IL-6 or TNF-α (C) in the culture medium was assayed by the Griess reaction or ELISA, respectively. In (B), cells (5 × 10^5/ml; 1 ml) were pretreated for 30 min with 2.5-40 µM compound 1h or DMSO, then LPS (1 µg/ml) was added and incubation continued for 24 h, then expression of iNOS and COX-2 was measured by Western blotting. The fold increase is the intensity of the band of interest divided by that of the actin band normalized to the corresponding value for the 0 LPS/0 inhibitor control.

Experiment [2] deals with ATP-activated LPS-primed J774A.1 macrophages. The experiment in a line: Intracellular ROS production (DCF fluorescence), ATP-induced. Type of experiment: cell-based, murine.
Description: Intracellular ROS production was measured by detecting the fluorescence intensity of the 2’, 7’-dichlorofluorescein, the oxidation product of 2’, 7’-dichlorofluorescein diacetate (Molecular Probes, Eugene, OR). […] In another, J774A.1 macrophages (5 × 10^5/ml; 0.1 ml) were incubated with LPS (1 µg/ml) for 6 h, then vehicle, compound 1h (20 µM), or DPI (25 µM) was added for 30 min. 2’, 7’-dichlorofluorescein diacetate (2 µM) was then added for 30 min before incubation with ATP (5 mM) for the indicated time; while, in another, the order of addition of compound1h/DPI and LPS was reversed. The fluorescence intensity of 2’, 7’-dichlorofluorescein was detected at an excitation wavelength of 485 nm and an emission wavelength of 530 nm on a microplate absorbance reader (Bio-Rad Laboratories, Inc).
In (A), J774A.1 macrophages (1 × 10^6/ml; 1 ml) were incubated with LPS (1 µg/ml) for 6 h, then with compound 1h (20 µM), the NADPH oxidase inhibitor DPI (25 µM), or DMSO (vehicle) for 30 min in the continued presence of LPS, then 2’,7’-dichlorofluorescein diacetate (2 µM) was added for 30 min, followed by ATP (5 mM) for the indicated time, then ROS levels were determined by measuring the mean fluorescence intensity (MFI) of the fluorophore carboxyl-DCF and expressing this value relative to that at time zero. In (B), J774A.1 macrophages (1 × 10^6/ml; 1 ml) were incubated with compound 1h (20 µM), DPI (25 µM), or DMSO (vehicle) for 30 min, then LPS (1 µg/ml) was added for 6 h; the cells were then incubated with 2’,7’-dichlorofluorescein diacetate (2 µM) for 30 min, then with ATP (5 mM) for the indicated time and ROS levels were measured by detection of the fluorescence intensity of the fluorophore carboxyl-DCF and expressed relative to that at time zero.
The subject of experiment [3] is LPS-activated RAW 264.7 macrophages. Put plainly: IL-6 and TNF-α secretion by ELISA. Type of experiment: cell-based, murine. The protocol:
The effects of the test samples on IL-1β, TNF-α, and IL-6 production were measured by ELISA according to the manufacturer’s instructions. In brief, 50 µl of biotinylated antibody reagent and 50 µl of supernatant were added to a stripwell plate precoated with anti-mouse IL-1β, TNF-α, or IL-6 antibodies, which was then incubated at room temperature for 2 h. After washing the plate three times with washing buffer, 100 µl of diluted streptavidin-HRP concentrate was added to each well and the plate incubated at room temperature for 30 min. The washing process was repeated, then 100 µl of a premixed tetramethylbenzidine substrate solution was added to each well and the plate incubated at room temperature in the dark for 30 min. After addition of 100 µl of stop solution to each well, the absorbance at 450 nm of each well was measured on a microplate reader.
as §1, §2

Experiment [4] has as its system NLRP3 inflammasome in LPS + ATP-activated JAWSII cells. The experiment in a line: NLRP3 inflammasome-mediated IL-1β secretion. The format is cell-based, murine.
Experiment [5] relates to LPS-activated J774A.1 cells. The experiment in a line: NLRP3 and proIL-1β expression by Western blot. Conditions: J774A.1, 1-40 µM 30 min before LPS 6 h. Type of experiment: cell-based, mouse. As to the method: Cells were washed twice with ice-cold phosphate-buffered saline (PBS) and lysed on ice for 5 min with lysis buffer (20 mM Tris-HCl, pH 7.5, 150 mM NaCl, 1 mM Na 2EDTA, 1 mM EGTA, 1% Triton X-100, 2.5 mM sodium pyrophosphate, 1 mM beta-glycerophosphate, 1 mM Na 3VO4, 1 µg/ml of leupeptin, 1 mM PMSF, protease inhibitor cocktail). The lysate was then centrifuged at 12,000 x g at 4 °C for 10 min and the pellet discarded. […]
Figure 4 Effect of compound 1h on NLRP3 inflammasome activation in LPS+ATP-activated J774A.1 macrophages. (A) J774A.1 macrophages (1 × 10^6/ml; 1 ml) or (B) peritoneal macrophages (1 × 10^5/ml; 1 ml) were incubated with 10-40 µM compound 1h or DMSO for 30 min, then LPS (1 µg/ml) was added and incubation continued for 5.5 h, then the cells were stimulated with ATP (5 mM) for an additional 30 min, then IL-1β in the culture medium was measured by ELISA (A, upper panel; B) and levels of active caspase-1 (p10) (A, lower panel) measured by Western blotting. […] In (E), J774A.1 macrophages (1 × 10^6/ml; 1 ml) were incubated for 30 min with DMSO or 1-40 µM compound 1h, then LPS (1 µg/ml) was added and incubation continued for 6 h, then expression of NLRP3 and proIL-1β was measured by Western blotting. […]

[6] abbreviates: RAW 264.7, 2.5-40 µM, LPS 1 µg/ml 24 h.

For `O=c1cc(O)cc(/C=C/C=C/C=C/C=C/c2[nH]ccc2Cl)o1` [compound 1h], in experiment [1] (0-40 µM), the COX-2 expression result is reported as “did not affect expression of COX-2” and the “LPS-induced iNOS expression” value is reported as “reduced LPS-induced iNOS expression”. Moreover, in experiment [1] (Western blot), the “Concentration at which reduction of LPS-induced iNOS expression is significant” value lay in the range of 5 to 40 µM. The “ATP-induced ROS production, compound added after LPS priming” value in experiment [2] (J774A.1, LPS 6 h, then compound 1h 20 µM or DPI 25 µM 30 min, ATP 5 mM 0-40 min) is given as “slightly reduced ATP-induced ROS production at 40 min”. Further, in experiment [2] (J774A.1, compound 1h 20 µM or DPI 25 µM 30 min, then LPS 6 h, then ATP 5 mM), the “ATP-induced ROS production, compound added 30 min before LPS priming” value is on record as “significantly inhibited ATP-induced ROS production”. In addition, in experiment [3] (setting [6]), the “IL-6 production by LPS-activated cells” value is given as “significantly decreased IL-6 production by LPS-activated cells in a dose-dependent manner”; the “TNF-α secretion by LPS-activated cells” value is “only slightly and non-significantly reduced”. Moreover, the “Background levels of IL-6 and TNF-α in non-stimulated macrophages” value in experiment [3] (RAW 264.7, no LPS (data not shown)) is “none of the three compounds altered background levels of IL-6 and TNF-α”. Besides, the “NLRP3 inflammasome-mediated IL-1β secretion” value in experiment [4] is on record as “reduced NLRP3 inflammasome-mediated interleukin-1β (IL-1β) secretion”. For the same compound, in experiment [5], the “LPS-induced proIL-1β expression” value is “inhibited LPS-induced proIL-1β expression in a dose-dependent fashion” and the NLRP3 protein expression result is given as “increased NLRP3 expression”.

The record behind these values is paper PMC3792051, “Polyenylpyrrole Derivatives Inhibit NLRP3 Inflammasome Activation and Inflammatory Mediator Expression by Reducing Reactive Oxygen Species Production and Mitogen-Activated Protein Kinase Activation” (PLoS ONE, 2013).
